The test system of one test is P. yoelii (17XL). The test can be described thus: microbe, parasite or virus in culture. The test is classed as cell-based, Plasmodium yoelii. Particulars: for IC50: read-out: OCA P. yoelii IC50.
A further test concerns HEK 293 cells. It is filed as cell-based, H. sapiens. Particulars: for IC50: read-out: OCA HEK 293 IC50, Table 4.
In a further test the target is cytbc1 (Plasmodium falciparum, UniProt Q02768). Put plainly: Enzymatic cytbc1 activity. Particulars: for % Inhibition Cytbc1 biochemical assay, 5 μM: compound at 5 μM, P. falciparum mitochondria, atovaquone 100% inhibition control. The test is classed as biochemical, P. falciparum K1 strain.
The subject of another test is P. falciparum (K1). It is filed as cell-based, Plasmodium falciparum.

Where two headings read alike, the source gives them in different places. Where only a bound is given, the exact number is not on record here.

Usually IC50 stands for the concentration needed to halve the response being measured. Usually inhibition stands for the drop in the measured response relative to a control, in per cent.

cytbc1, sequence (Q02768 whole entry): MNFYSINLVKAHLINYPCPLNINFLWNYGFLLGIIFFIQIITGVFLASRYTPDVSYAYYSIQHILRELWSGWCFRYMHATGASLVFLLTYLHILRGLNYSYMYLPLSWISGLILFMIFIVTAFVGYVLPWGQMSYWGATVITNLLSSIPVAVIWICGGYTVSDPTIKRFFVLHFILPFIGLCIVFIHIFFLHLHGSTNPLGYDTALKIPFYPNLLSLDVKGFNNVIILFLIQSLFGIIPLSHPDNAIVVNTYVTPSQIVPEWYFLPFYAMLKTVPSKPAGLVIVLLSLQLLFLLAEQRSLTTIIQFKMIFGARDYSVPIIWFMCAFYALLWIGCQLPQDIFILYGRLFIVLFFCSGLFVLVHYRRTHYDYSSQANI

Take `COc1ccc(NS(=O)(=O)c2cc(NC(=O)Cn3ccccc3=O)ccc2N2CCCCC2)cc1` [TCMDC-124874]: the IC50 is 760 ± 109 nM in the test on P. yoelii (17XL) (Table 4) and above 10000 nM with HEK 293 cells. Also, at cytbc1, the “% Inhibition Cytbc1 biochemical assay, 5 μM” value was 59.97 ± 8.70%.
`Cc1cccc(-c2nn(-c3ccccc3)cc2C(=O)Nc2nnc(C)o2)c1` [TCMDC-125039]: the values for the IC50 with P. yoelii (17XL) (Table 4) and in the test on HEK 293 cells were 1100 ± 131 nM and above 10000 nM, respectively. Also, the “% Inhibition Cytbc1 biochemical assay, 5 μM” value on cytbc1 was 77.11 ± 12.20%.
Regarding `O=C1C(O)=C([C@H]2CC[C@H](c3ccc(Cl)cc3)CC2)C(=O)c2ccccc21` [Atovaquone, reference compound], the “inhibition of oxygen consumption signal in Plasmodium cells” value in the test with P. yoelii (17XL) (1.25 μM atovaquone, 2·10^7 P. yoelii cells (Fig. 2B)) was “completely inhibited”. Further, the IC50 in the test with P. yoelii (17XL) (Plasmodium yoelii) was found to be 5 ± 1 nM. Also, the inhibition at 0.5 µM at cytbc1 (read-out: % Inhibition Cytbc1 biochemical assay, 0.5 μM) is 105 ± 8.26%. Besides, the inhibition at 5 µM at cytbc1 (read-out: % Inhibition Cytbc1 biochemical assay, 5 μM) was determined as 101 ± 9.82%.
As for `Cc1cccc2nc(-c3ccc(-c4ccc(CN5CC(C)OC(C)C5)cc4)cc3)[nH]c12.O=C(O)C(F)(F)F` (stereo not shown) [TCMDC-133823], the IC50 in the test with P. yoelii (17XL) (Table 4) is 2200 ± 1950 nM; in the test on HEK 293 cells, above 10000 nM. Also, the “% Inhibition Cytbc1 biochemical assay, 5 μM” value on cytbc1 is 89.93 ± 9.67%.
The matching figures for `Clc1cccc(Nc2ccc3c(N4CCCCC4)ncnc3n2)c1` [TCMDC-134937]: 1320 ± 860 nM, above 10000 nM and 50.34 ± 6.78%.
Take `c1ccc(CCNc2ncnc3c2[nH]c2ccccc23)cc1` [TCMDC-124578]: the half-inhibitory concentration (IC50) with P. yoelii (17XL) (Table 4) was determined as 292 ± 249 nM; with HEK 293 cells, 7520 ± 500 nM. Moreover, on cytbc1, the “% Inhibition Cytbc1 biochemical assay, 5 μM” value is recorded as 100.30 ± 2.14%.
For `C/C=C(C)/C=C/C=C/[C@H](OC)[C@@H](C)[C@@H](OC)[C@@H](C)CCc1oc2c(O)c(OC)cc(OC)c2c(=O)c1C` [Stigmatellin], the “Selectivity (P. falciparum vs H. sapiens)” value with P. falciparum (K1) (ratio of OCA IC50 HEK 293 / P. falciparum K1) is given as 0.015.
`N#CC(C#N)=NNc1ccc(OC(F)(F)F)cc1` [FCCP, carbonyl cyanide 4-(trifluoromethoxy)phenylhydrazone]: the “Selectivity (P. falciparum vs H. sapiens)” value in the test with P. falciparum (K1) is on record as 1.93.
For the compound `COCCN(C)c1ccc(C(=O)Nc2ccccc2)cc1NS(=O)(=O)Cc1ccccc1.O=C(O)C(F)(F)F` [TCMDC-134575], the IC50 in the test on P. yoelii (17XL) (Table 4) is 514 ± 225 nM; in the test with HEK 293 cells, above 10000 nM. The “% Inhibition Cytbc1 biochemical assay, 5 μM” value on cytbc1 was determined as 91.48 ± 7.57%.
In the case of `C=C(C)[C@H]1Cc2c(ccc3c2O[C@@H]2COc4cc(OC)c(OC)cc4[C@@H]2C3=O)O1` [Rotenone, reference compound], the “inhibition of oxygen consumption signal in HEK 293 cells” value with HEK 293 cells (rotenone at 2.5 μM, 6.5·10^5 HEK 293 cells (Fig. 2A)) was “completely inhibited”.
As for `O=C(Nc1ccccc1O)c1ccc(S(=O)(=O)c2ccc(Cl)cc2)cc1` [TCMDC-123689], the IC50 in the test on P. yoelii (17XL) (Table 4) was 8190 ± 1260 nM; in the test on HEK 293 cells, above 10000 nM. Moreover, the “% Inhibition Cytbc1 biochemical assay, 5 μM” value on cytbc1 is 99.84 ± 2.22%.

Source of the values: paper PMC6039321 (International Journal for Parasitology: Drugs and Drug …, 2018).
